Test results reported in US11266710B2, “Angio-3 for treatment of retinal angiogenic diseases” (SINGAPORE HEALTH SERVICES PTE LTD, priority 2017, dated 2022).

Tested on: laser-induced CNV in C57/BL6J (B6J) wild type mice
Assay: Laser-induced choroidal neovascularization (CNV) model in mice, area of leakage by FFA
Assay type: in vivo
Details: for Area of Leakage (mean) Week 1 / Area of Leakage (mean) Week 4: laser-induced CNV mice; for % Reduction (area of leakage): vehicle control = 0%
Method: FIG. 3A is a schematic of the experimental design on the efficacy of Angio-3 in a laser-induced choroidal neovascularization (CNV) model in mice (B6J WT mice). FIG. 3B are FFA images of baseline and at different time points post treatment. IV single injection of 100 μL of Angio-3 (25 mg/Kg Bwt) was given at Day 0 (prevention mode) and 4 days after laser (regression mode) and followed for 10 weeks. FIG. 3C is a graph showing the area of leakage by each eye for various groups. FIG. 3D are graphs of the mean area of leakage of all batches for each group. […] The attenuation retinal vascularization was better than scrambled peptide. n=6 eyes per batch; n=3 batches. Values are expressed as means±s.e.m., **P<0.01, *P<0.05, student's t-test. FIG. 3E is a graph of the result of the Retinal Function Test that measures ERG changes in Angio-3 treated and control.
FIG. 4A is a schematic of the experimental design on the efficacy of Angio-3 by IVT administration. […]
FIG. 11 A are FFA images of baseline and at different time points post treatment. Mice received single IVT injection of Angio-3 (at a dose of 1 μg in 1 μl or 100 ng in 1 μl), and chemically modified Angio-3 peptides Pep-N (at doses of 5 μg in μl; 1 μg in μl; and 100 ng in 1 μl, respectively) and Pep-Q peptides (at doses of 5 μg in μl; 1 μg in μl; and 100 ng in 1 μl, respectively). FIG. 11 B is a graph of the area of leakage by each eye. Single dose attenuates retinal angiogenesis in laser-induced mice CNV model via IVT route till 4 weeks. […] Eylea is the positive control. n=18 eyes per group; Values are expressed as means±s.e.m. n=3 independent experiment, **P<0.01, *P<0.05, student's t-test.
Laser induced choridal neo-vascularization (CNV) in C57/BL6J (B6J) wild type mice (n=90).
In B6J mice, single injection of 100 μl volume at 25 mg/kg Bwt concentration Angio-3 was injected via intravenous (i/v) route and this was tested in both Preventive mode (before laser) and Regression mode (4 days after laser). […]
Angio-3 was also injected via intravitreal (IVT) route, single injection of 1 μl volume at 2 different doses; 1 μg (High dose) and 100 ng (Low dose).
4 laser photocoagulation sites were placed concentrically around the optic disc of both eyes to induce CNVs. A diode laser (810 nm) was used with a relative potency scale of 120 mW for mice and 250 mW for rats, an exposure time of 0.05 s, and a spot size of […]. Laser spots were focused with crystal covers to avoid laser beam dispersion. Bubble formation was confirmed the rupture of Bruch's membrane.
Fundus photography and fundus fluorescein angiography (FFA) was imaged using a MICRON IV fundus camera (Phoenix Laboratories USA). For FFA, animals were intraperitoneally injected with 10% sodium fluorescein at a dose of 0.01 ml per 5-6 gm body weight.
In B6J mice, single intravitreous (IVT) injection of 100 ng, 1 μg, 5 μg PEP-Q, PEP-N (modified Angio-3), Angio-3 and Eylea were executed and this was tested in Prevention mode (before laser) Method of Llser induced CNV model and injection was described as above.

[1] = 100 ng single IVT, prevention mode
[2] = 1 μg single IVT, prevention mode
[3] = 5 μg single IVT, prevention mode

Substance: Eylea: Eylea (anti-VEGF), positive control; clinical compound [reference compound]
- Area of Leakage (mean) Week 1 [1]: 10273.37
- Area of Leakage (mean) Week 4 [1]: 3433.52
- % Reduction (area of leakage) (100 ng single IVT): 28.40%
- Area of Leakage (mean) Week 1 [2]: 12502.09
- Area of Leakage (mean) Week 4 [2]: 3005.85
- % Reduction (area of leakage) (1 μg single IVT): 37.77%
- Area of Leakage (mean) Week 1 [3]: 11724.39
- Area of Leakage (mean) Week 4 [3]: 1834.08
- % Reduction (area of leakage) (5 μg single IVT): 46.17%
- choroidal angiogenesis (B6J mice, single intravitreal injection at dose 100 ng, 1 g, and 5 μg, prevention mode): superior efficacy that is similar to PEP-Q and PEP-N
